System: Mycobacterium tuberculosis variant bovis
Assay: Antibacterial activity against Mycobacterium bovis
Type: functional

## C=CC(C)(C)c1cc(/C=C/C(=O)c2ccc(O)cc2)c(OC)cc1O [LICOAGROCHACONE A]
  MIC: ≤ 20 µg/mL

Reference: ChEMBL document CHEMBL1140598, “A review of anti-infective and anti-inflammatory chalcones” (Eur J Med Chem, 2007)
